{"source": "patent US8455442B2", "about": "“Peptides having binding affinity to an antibody which recognizes an epitope on an α1 loop 2 or β2 loop 1 of an adrenoreceptor” (MDC Max-Delbruck-Centrum fur Molekulare Medizin Berlin-Buch, priority 2008, dated 2013)", "key": {"α1 adrenergic receptor": {"tested_on": "α1 adrenergic receptor", "assay": "Antagonist block of patient-antibody stimulation of the beating rate of cultured neonatal rat cardiomyocytes", "format": "cell-based", "details": "FIG. 1; prazosin given in addition to ICI 118,551; patient immunoglobulins on rat cardiomyocytes", "excerpt": "(§1) Preparation of the immunoglobulin fraction.\n(§2) The buffer was changed five times during dialysis."}, "[1]": {"tested_on": "antibodies from patients with Morbus Alzheimer directed to the α1A Adrenoceptor", "assay": "Peptide neutralization of the antibody-mediated increase of the beating rate (neonatal rat cardiomyocyte bioassay)", "format": "cell-based, human", "details": "FIG. 6; overlapping peptides of the second extracellular loop of the α1A Adrenoceptor co-incubated with patient immunoglobulins (n=5)", "description": "as §1, §2\n(§3) After the dialysis, the IgG fractions feature a concentration of 10-15 mg/ml, a maximum of 10 μg/ml of which are specific receptor antibodies. 50 μl of this IgG solution are pre-incubated with the peptides with the following concentration of peptides: 5 μl of a buffered solution of 100 μg/ml per 50 μl IgG solution. This mixture is pre-incubated at room temperature for 30 minutes and subsequently filled into the cell culture vials, after the former nutrient solution has been removed by pipet. The amount of the medium is 2 ml. The final concentration therefore is of […] for the IgG and 0.5 μg for the peptides. If the molecular weight of the peptide (10 mer) is set with 1 KD and that of the IgG is set with 150 KD, there is an excess of […].\n(§4) For the neutralization experiments, synthetic peptides corresponding to the sequence of the three extracellular loops of the human β2 AR or α1A-AR was added in excess (0.5 μg in 50 μl) to 50 μl of the immunoglobulin fraction. The mixtures were shaken and incubated at room temperature for 1 h. The 100-μl samples were then added to neonatal rat heart muscle cells cultured in 2 ml medium to a final dilution of 1:40. The beating rate was counted for 15 s, about 60 min after the addition of the peptide/immunoglobulin mixture. […]"}, "[2]": {"tested_on": "antibodies from patients with Morbus Alzheimer directed to the β2 Adrenoceptor", "assay": "Peptide neutralization of the antibody-mediated increase of the beating rate (neonatal rat cardiomyocyte bioassay)", "format": "cell-based, human", "details": "FIG. 3; overlapping epitope peptides of loop 1 of the β2-AR co-incubated with patient immunoglobulins (n=6)", "description": "as §1, §2, §3, §4"}}, "data": [{"compound": "COc1cc2nc(N3CCN(C(=O)c4ccco4)CC3)nc(N)c2cc1OC", "note": "[prazosin]", "values": [{"measurement": "inhibition of cellular activity of contraction", "setting": "α1 adrenergic receptor", "result": "more effective inhibition"}]}, {"compound": "APEDET [peptide embedded in the second extracellular loop of the α1A Adrenoceptor]", "values": [{"measurement": "neutralisation of the cellular activity of the immunoglobulins", "setting": "[1]", "result": "neutralises"}]}, {"compound": "FGNFWCE", "values": [{"measurement": "neutralisation of antibody mediated increase of the beating rate", "setting": "[2]", "result": "neutralisation"}]}]}
